The values below come from US7947685B2, “Pyrazine-2-carboxyamide derivatives” (Hoffmann-La Roche Inc., priority 2005, dated 2011).

Broadly, the Ki is a measure of affinity in units of concentration, obtained from inhibition or displacement.

This assay addresses T1, human mGlu 5a receptor (Homo sapiens, UniProt P41594).
T1 construct: expressed in transfected cells; host or cells: EBNA cells (transient transfection); cell membrane homogenates
The experiment in a line: [3H]MPEP competition binding on membranes of EBNA cells transiently transfected with human mGlu 5a receptor. The conditions noted are these: displacement of [3H]MPEP (2 nM), 1 h at 4° C. The method, then: The pharmacological activity of the compounds was tested using the following method: For binding experiments, cDNA encoding human mGlu 5a receptor was transiently transfected into EBNA cells using a procedure described by Schlaeger and Christensen [Cytotechnology 15:1-13 (1998)]. Cell membrane homogenates were stored at −80° C. until the day of assay where upon they were thawed and resuspended and polytronized in 15 mM Tris-HCl, 120 mM NaCl, 100 mM KCl, 25 mM CaCl2, 25 mM MgCl2 binding buffer at pH 7.4 to a final assay concentration of 20 μg protein/well.
Saturation isotherms were determined by addition of twelve [^3H]MPEP concentrations (0.04-100 nM) to these membranes (in a total volume of 200 μl) for 1 h at 4° C. Competition experiments were performed with a fixed concentration of [^3H]MPEP (2 nM), and IC50 values of test compounds evaluated using […] (0.3-10,000 nM). Incubations were performed for 1 h at 4° C.
At the end of the incubation, membranes were filtered onto unifilter (96-well white microplate with bonded GF/C filter preincubated 1 h in 0.1% PEI in wash buffer, Packard BioScience, Meriden, Conn.) with a Filtermate 96 harvester (Packard BioScience) and washed 3 times with cold 50 mM Tris-HCl, pH 7.4 buffer. Nonspecific binding was measured in the presence of 10 μM MPEP. The radioactivity on the filter was counted (3 min) on a Packard Top-count microplate scintillation counter with quenching correction after addition of 45 μl of microscint 40 (Canberra Packard S.A., Zürich, Switzerland) and shaking for 20 min.
The inhibition (antagonists) curves were fitted with a four parameter logistic equation giving IC50, and Hill coefficient using iterative non linear curve fitting software (Xcel fit).
For binding experiments the Ki values of the compounds tested are given. The Ki value is defined by the following formula: Ki=IC50/[1+L/Kd] in which the IC50 values are these concentrations of the compounds tested which cause 50% inhibition of the competing radioligand ([^3H]MPEP). L is the concentration of radioligand used in the binding experiment and the Kd value of the radioligand is empirically determined for each batch of membranes prepared.
In general terms: Displacement assays read how much labelled ligand stays bound in the presence of the test substance.

T1 sequence (P41594 21-1180 isoform P41594-2 limits assumed): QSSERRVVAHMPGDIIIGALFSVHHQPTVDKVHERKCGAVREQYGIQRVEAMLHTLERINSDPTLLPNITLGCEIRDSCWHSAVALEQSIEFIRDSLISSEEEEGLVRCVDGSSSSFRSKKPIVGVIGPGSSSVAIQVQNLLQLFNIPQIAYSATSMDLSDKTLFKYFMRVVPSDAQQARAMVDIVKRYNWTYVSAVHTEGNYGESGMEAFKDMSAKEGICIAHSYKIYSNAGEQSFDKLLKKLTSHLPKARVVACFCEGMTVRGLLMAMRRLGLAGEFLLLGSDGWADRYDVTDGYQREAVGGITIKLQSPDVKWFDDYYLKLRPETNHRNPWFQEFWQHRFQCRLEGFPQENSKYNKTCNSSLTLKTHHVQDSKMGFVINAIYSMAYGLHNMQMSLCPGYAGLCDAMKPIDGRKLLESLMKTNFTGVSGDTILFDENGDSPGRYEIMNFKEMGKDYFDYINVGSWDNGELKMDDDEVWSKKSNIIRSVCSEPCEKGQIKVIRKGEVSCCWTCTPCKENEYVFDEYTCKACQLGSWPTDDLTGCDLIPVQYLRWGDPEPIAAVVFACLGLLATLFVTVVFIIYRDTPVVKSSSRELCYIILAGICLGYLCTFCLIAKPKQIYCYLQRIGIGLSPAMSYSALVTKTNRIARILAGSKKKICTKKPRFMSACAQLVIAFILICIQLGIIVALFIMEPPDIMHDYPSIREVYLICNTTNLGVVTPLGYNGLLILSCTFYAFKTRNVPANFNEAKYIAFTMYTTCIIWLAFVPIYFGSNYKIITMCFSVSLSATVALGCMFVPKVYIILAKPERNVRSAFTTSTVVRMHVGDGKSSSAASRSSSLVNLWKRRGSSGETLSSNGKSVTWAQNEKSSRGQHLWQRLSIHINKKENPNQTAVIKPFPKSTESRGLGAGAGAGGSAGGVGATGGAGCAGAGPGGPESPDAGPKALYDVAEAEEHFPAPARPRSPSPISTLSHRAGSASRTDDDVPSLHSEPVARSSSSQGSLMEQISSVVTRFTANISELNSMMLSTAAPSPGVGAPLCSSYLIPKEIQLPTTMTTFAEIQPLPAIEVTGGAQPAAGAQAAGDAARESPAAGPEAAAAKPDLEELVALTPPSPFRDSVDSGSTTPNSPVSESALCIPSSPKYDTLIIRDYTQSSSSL

In the case of `O=C(Nc1cccc(Cl)c1)c1nccnc1Nc1cccnc1` [Example 1, 3-(Pyridin-3-ylamino)-pyrazine-2-carboxylic acid (3-chloro-phenyl)-amide], the Ki stood at 0.054 µM.

Regarding `O=C(Nc1cccc(Cl)c1)c1nccnc1Nc1ccccc1` [Example 2, 3-Phenylamino-pyrazine-2-carboxylic acid (3-chloro-phenyl)-amide], the Ki is 0.095 µM.

With `Cn1ccc(NC(=O)c2nccnc2Nc2cncc(F)c2)n1` [Example 3, 3-(5-Fluoro-pyridin-3-ylamino)-pyrazine-2-carboxylic acid (1-methyl-1H-pyrazol-3-yl)-amide], the Ki was determined as 0.071 µM.

`Cc1cc(NC(=O)c2nccnc2Nc2ccccc2)ccn1` [Example 4, 3-Phenylamino-pyrazine-2-carboxylic acid (2-methyl-pyridin-4-yl)-amide]: the Ki worked out at 0.761 µM.

As to `Cc1cc(NC(=O)c2nc(C)cnc2Nc2cncc(Cl)c2)ccn1` [Example 5, 3-(5-Chloro-pyridin-3-ylamino)-6-methyl-pyrazine-2-carboxylic acid (2-methyl-pyridin-4-yl)-amide], the Ki turned out to be 1.63 µM.
